Measured values as given in US12077503B2, “Substituted cyclic amides and their use as herbicides” (FMC CORPORATION, priority 2015, dated 2024).

Key:
Format in all cases: in vivo
[1] = system: barnyardgrass (Echinochloa crus-galli); test: Test G Post-Emergence Protocol; details: Echinochloa crus-galli, post-emergence, 312 h
Method in brief: (§1)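 Foliar application was made 8 days after sowing, using an aqueous spray of the active in acetone/water (50:50) with 0.5% Tween 20, at doses of 15.625, 62.5 or 250 g/ha. Injury was assessed 13 days later, where 100 meant the plant was fully damaged.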

[2] = system: redroot pigweed (Amaranthus retroflexus); test: Test G Post-Emergence Protocol; details: Amaranthus retroflexus, post-emergence, 312 h
Method in brief: as §1

[3] = system: ivy-leaved morning glory (Ipomoea hederacea); test: Test G Post-Emergence Protocol; details: Ipomoea, post-emergence, 312 h
Method in brief: as §1

[4] = system: corn (Zea mays); test: Test G Post-Emergence Protocol; details: Zea mays, post-emergence, 312 h
Method in brief: as §1

[5] = system: velvetleaf (Abutilon theophrasti); test: Test G Post-Emergence Protocol; details: Abutilon theophrasti, post-emergence, 312 h
Method in brief: as §1

[6] = system: giant foxtail (Setaria faberi); test: Test G Post-Emergence Protocol; details: Setaria faberi, post-emergence, 312 h
Method in brief: as §1

[7] = system: barnyardgrass (Echinochloa crus-galli); test: Test G Pre-Emergence Protocol; details: Echinochloa crus-galli, pre-emergence, 312 h, evaluated after 13 days
Method in brief: (§2)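 Seeds were sown in standard soil and kept one day in a glasshouse (24/16° C day/night, 14 h light, 65% humidity), then sprayed with compound in acetone/water (50:50) containing 0.5% Tween 20 at 15.625, 62.5 or 250 g/ha. Damage was scored after 13 days (0 = none, 100 = total).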

[8] = system: redroot pigweed (Amaranthus retroflexus); test: Test G Pre-Emergence Protocol; details: Amaranthus retroflexus, pre-emergence, 312 h, evaluated after 13 days
Method in brief: as §2

[9] = system: ivy-leaved morning glory (Ipomoea hederacea); test: Test G Pre-Emergence Protocol; details: Ipomoea, pre-emergence, 312 h, evaluated after 13 days
Method in brief: as §2

[10] = system: corn (Zea mays); test: Test G Pre-Emergence Protocol; details: Zea mays, pre-emergence, 312 h, evaluated after 13 days
Method in brief: as §2

[11] = system: velvetleaf (Abutilon theophrasti); test: Test G Pre-Emergence Protocol; details: Abutilon theophrasti, pre-emergence, 312 h, evaluated after 13 days
Method in brief: as §2

[12] = system: giant foxtail (Setaria faberi); test: Test G Pre-Emergence Protocol; details: Setaria faberi, pre-emergence, 312 h, evaluated after 13 days
Method in brief: as §2

Question: Which pest or weed control at 15.625 g/ha ([1]; 15.625 g ai/ha, evaluated after 13 days (100=total damage to plant; 0=no damage to plant), read-out: Barnyardgrass damage rating) does the source give for `CN1C[C@@H](c2ccc(C(F)(F)F)cc2)[C@H](C(=O)Nc2c[nH]nc2C(F)(F)F)C1=O` (racemic) [Compound 1535] here?
Answer: 0%

Question: And the pest or weed control at 62.5 g/ha ([1]; 62.5 g ai/ha, evaluated after 13 days, read-out: Barnyardgrass damage rating (100=total damage to plant; 0=no damage to plant))?
Answer: 0%

Question: What about the pest or weed control at 250 g/ha ([1]; 250 g ai/ha, evaluated after 13 days, read-out: damage to plant, Barnyardgrass (100=total damage to plant; 0=no damage to plant)) of the same compound?
Answer: 0%

Question: And the pest or weed control at 15.625 g/ha ([2]; 15.625 g ai/ha, evaluated after 13 days (100=total damage to plant; 0=no damage to plant), read-out: Pigweed, Redroot damage rating)?
Answer: 0%

Question: What about the pest or weed control at 62.5 g/ha ([2]; 62.5 g ai/ha, evaluated after 13 days, read-out: Pigweed, Redroot damage rating (100=total damage to plant; 0=no damage to plant)) of the same compound?
Answer: 10%

Question: What about the pest or weed control at 250 g/ha ([2]; 250 g ai/ha, evaluated after 13 days, read-out: damage to plant, Pigweed, Redroot (100=total damage to plant; 0=no damage to plant)) of the same compound?
Answer: 30%

Question: And the pest or weed control at 15.625 g/ha ([3]; 15.625 g ai/ha, evaluated after 13 days (100=total damage to plant; 0=no damage to plant), read-out: Morningglory, Ivy-leaved damage rating)?
Answer: 0%

Question: And the pest or weed control at 62.5 g/ha ([3]; 62.5 g ai/ha, evaluated after 13 days, read-out: Morningglory, Ivy-leaved damage rating (100=total damage to plant; 0=no damage to plant))?
Answer: 0%

Question: And the pest or weed control at 250 g/ha ([3]; 250 g ai/ha, evaluated after 13 days, read-out: damage to plant, Morningglory, Ivy-leaved (100=total damage to plant; 0=no damage to plant))?
Answer: 0%

Question: And the plant injury at 15.625 g/ha ([4]; 15.625 g ai/ha, evaluated after 13 days (100=total damage to plant; 0=no damage to plant), read-out: Corn damage rating)?
Answer: 0%

Question: What about the plant injury at 62.5 g/ha ([4]; 62.5 g ai/ha, evaluated after 13 days, read-out: Corn damage rating (100=total damage to plant; 0=no damage to plant)) of the same compound?
Answer: 0%

Question: And the plant injury at 250 g/ha ([4]; 250 g ai/ha, evaluated after 13 days, read-out: damage to plant, Corn (100=total damage to plant; 0=no damage to plant))?
Answer: 10%

Question: And the pest or weed control at 15.625 g/ha ([5]; 15.625 g ai/ha, evaluated after 13 days (100=total damage to plant; 0=no damage to plant), read-out: Velvetleaf damage rating)?
Answer: 0%

Question: What about the pest or weed control at 62.5 g/ha ([5]; 62.5 g ai/ha, evaluated after 13 days, read-out: Velvetleaf damage rating (100=total damage to plant; 0=no damage to plant)) of the same compound?
Answer: 0%

Question: And the pest or weed control at 250 g/ha ([5]; 250 g ai/ha, evaluated after 13 days, read-out: damage to plant, Velvetleaf (100=total damage to plant; 0=no damage to plant))?
Answer: 0%

Question: And the pest or weed control at 15.625 g/ha ([6]; 15.625 g ai/ha, evaluated after 13 days (100=total damage to plant; 0=no damage to plant), read-out: Foxtail, Giant damage rating)?
Answer: 0%

Question: And the pest or weed control at 62.5 g/ha ([6]; 62.5 g ai/ha, evaluated after 13 days, read-out: Foxtail, Giant damage rating (100=total damage to plant; 0=no damage to plant))?
Answer: 0%

Question: And the pest or weed control at 250 g/ha ([6]; 250 g ai/ha, evaluated after 13 days, read-out: damage to plant, Foxtail, Giant (100=total damage to plant; 0=no damage to plant))?
Answer: 0%

Question: What about the pest or weed control at 15.625 g/ha ([7]; 15.625 g ai/ha, read-out: Barnyard grass damage rating (100=total damage to plant; 0=no damage to plant)) of the same compound?
Answer: 0%

Question: And the pest or weed control at 62.5 g/ha ([7]; 62.5 g ai/ha, 100=total damage to plant, 0=no damage to plant, read-out: plant damage rating, Barnyardgrass)?
Answer: 0%

Question: What about the pest or weed control at 250 g/ha ([7]; 250 g ai/ha, read-out: Barnyardgrass damage rating (100=total damage to plant; 0=no damage to plant)) of the same compound?
Answer: 0%

Question: And the pest or weed control at 15.625 g/ha ([8]; 15.625 g ai/ha, read-out: Pigweed, Redroot damage rating (100=total damage to plant; 0=no damage to plant))?
Answer: 0%

Question: And the pest or weed control at 62.5 g/ha ([8]; 62.5 g ai/ha, 100=total damage to plant, 0=no damage to plant, read-out: plant damage rating, Pigweed, Redroot)?
Answer: 20%

Question: What about the pest or weed control at 250 g/ha ([8]; 250 g ai/ha, read-out: Pigweed, Redroot damage rating (100=total damage to plant; 0=no damage to plant)) of the same compound?
Answer: 40%

Question: What about the pest or weed control at 15.625 g/ha ([9]; 15.625 g ai/ha, read-out: Morning-glory, Ivy-leaved damage rating (100=total damage to plant; 0=no damage to plant)) of the same compound?
Answer: 0%

Question: And the pest or weed control at 62.5 g/ha ([9]; 62.5 g ai/ha, 100=total damage to plant, 0=no damage to plant, read-out: plant damage rating, Morningglory, Ivy-leaved)?
Answer: 0%

Question: What about the pest or weed control at 250 g/ha ([9]; 250 g ai/ha, read-out: Morningglory, Ivy-leaved damage rating (100=total damage to plant; 0=no damage to plant)) of the same compound?
Answer: 0%

Question: What about the plant injury at 15.625 g/ha ([10]; 15.625 g ai/ha, read-out: Corn damage rating (100=total damage to plant; 0=no damage to plant)) of the same compound?
Answer: 0%

Question: What about the plant injury at 62.5 g/ha ([10]; 62.5 g ai/ha, 100=total damage to plant, 0=no damage to plant, read-out: plant damage rating, Corn) of the same compound?
Answer: 0%

Question: What about the plant injury at 250 g/ha ([10]; 250 g ai/ha, read-out: Corn damage rating (100=total damage to plant; 0=no damage to plant)) of the same compound?
Answer: 0%

Question: And the pest or weed control at 15.625 g/ha ([11]; 15.625 g ai/ha, read-out: Velvetleaf damage rating (100=total damage to plant; 0=no damage to plant))?
Answer: 0%

Question: And the pest or weed control at 62.5 g/ha ([11]; 62.5 g ai/ha, 100=total damage to plant, 0=no damage to plant, read-out: plant damage rating, Velvetleaf)?
Answer: 0%

Question: What about the pest or weed control at 250 g/ha ([11]; 250 g ai/ha, read-out: Velvetleaf damage rating (100=total damage to plant; 0=no damage to plant)) of the same compound?
Answer: 0%

Question: What about the pest or weed control at 15.625 g/ha ([12]; 15.625 g ai/ha, read-out: Foxtail, Giant damage rating (100=total damage to plant; 0=no damage to plant)) of the same compound?
Answer: 0%

Question: And the pest or weed control at 62.5 g/ha ([12]; 62.5 g ai/ha, 100=total damage to plant, 0=no damage to plant, read-out: plant damage rating, Foxtail, Giant)?
Answer: 0%

Question: What about the pest or weed control at 250 g/ha ([12]; 250 g ai/ha, read-out: Foxtail, Giant damage rating (100=total damage to plant; 0=no damage to plant)) of the same compound?
Answer: 0%
